Measurements from US20090069215A1, “Acylated Single Chain Insulin” (Novo Nordisk A/S, priority 2006, published 2009).

target: human insulin receptor (Homo sapiens, UniProt P06213); assay: Insulin receptor binding, SPA antibody capture assay (assay (I)); settings: recombinant human insulin receptor - exon 11, A14 Tyr[125I]-human insulin tracer, human insulin = 100%
Experimental: Insulin Receptor Binding of the Acylated, Single-Chain Insulin
The affinity of the acylated, single-chain insulins for the human insulin receptor can be determined by a SPA assay (Scintillation Proximity Assay) microtiterplate antibody capture assay. SPA-PVT antibody-binding beads, anti-mouse reagent (Amersham Biosciences, Cat No. PRNQ0017) are mixed with 25 ml of binding buffer (100 mM HEPES pH 7.8; 100 mM sodium chloride, 10 mM MgSO4, 0.025% Tween-20). Reagent mix for a single Packard Optiplate (Packard No. 6005190) is composed of 2.4 μl of a 1:5000 diluted purified recombinant human insulin receptor—exon 11, an amount of a stock solution of A14 Tyr[125I]-human insulin corresponding to 5000 cpm per 100 μl of reagent mix, 12 μl of a 1:1000 dilution of F12 antibody, 3 ml of SPA-beads and binding buffer to a total of 12 ml. A total of 100 μl is then added and a dilution series is made from appropriate samples. To the dilution series is then added 100 μl of reagent mix and the samples are incubated for 16 hours while gently shaken. The phases are then separated by centrifugation for 1 min and the plates counted in a Topcounter. The binding data are fitted using the nonlinear regression algorithm in the GraphPad Prism 2.01 (GraphPad Software, San Diego, Calif.).

human insulin receptor, sequence (P06213 28-746 isoform P06213-2 limits assumed): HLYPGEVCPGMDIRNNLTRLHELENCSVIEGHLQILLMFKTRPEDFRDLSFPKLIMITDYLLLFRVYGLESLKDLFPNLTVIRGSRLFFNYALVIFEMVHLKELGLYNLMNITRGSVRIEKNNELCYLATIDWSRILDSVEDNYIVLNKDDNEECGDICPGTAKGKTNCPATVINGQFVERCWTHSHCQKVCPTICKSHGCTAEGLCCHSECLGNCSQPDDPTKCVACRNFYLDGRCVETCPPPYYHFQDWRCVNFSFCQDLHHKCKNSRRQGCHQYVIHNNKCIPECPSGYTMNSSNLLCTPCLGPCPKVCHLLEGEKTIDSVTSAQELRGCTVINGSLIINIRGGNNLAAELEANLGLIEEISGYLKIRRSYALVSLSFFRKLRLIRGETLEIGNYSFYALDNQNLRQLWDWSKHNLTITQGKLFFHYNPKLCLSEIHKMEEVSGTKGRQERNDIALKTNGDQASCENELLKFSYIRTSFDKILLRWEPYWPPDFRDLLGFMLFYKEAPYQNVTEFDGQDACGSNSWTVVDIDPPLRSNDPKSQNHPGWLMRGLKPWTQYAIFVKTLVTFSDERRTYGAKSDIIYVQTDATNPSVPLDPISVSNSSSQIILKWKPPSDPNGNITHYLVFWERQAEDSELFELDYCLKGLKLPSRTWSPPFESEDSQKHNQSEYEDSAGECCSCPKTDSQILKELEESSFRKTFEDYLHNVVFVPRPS
human insulin receptor, sequence (P06213 763-1382 partner limits assumed): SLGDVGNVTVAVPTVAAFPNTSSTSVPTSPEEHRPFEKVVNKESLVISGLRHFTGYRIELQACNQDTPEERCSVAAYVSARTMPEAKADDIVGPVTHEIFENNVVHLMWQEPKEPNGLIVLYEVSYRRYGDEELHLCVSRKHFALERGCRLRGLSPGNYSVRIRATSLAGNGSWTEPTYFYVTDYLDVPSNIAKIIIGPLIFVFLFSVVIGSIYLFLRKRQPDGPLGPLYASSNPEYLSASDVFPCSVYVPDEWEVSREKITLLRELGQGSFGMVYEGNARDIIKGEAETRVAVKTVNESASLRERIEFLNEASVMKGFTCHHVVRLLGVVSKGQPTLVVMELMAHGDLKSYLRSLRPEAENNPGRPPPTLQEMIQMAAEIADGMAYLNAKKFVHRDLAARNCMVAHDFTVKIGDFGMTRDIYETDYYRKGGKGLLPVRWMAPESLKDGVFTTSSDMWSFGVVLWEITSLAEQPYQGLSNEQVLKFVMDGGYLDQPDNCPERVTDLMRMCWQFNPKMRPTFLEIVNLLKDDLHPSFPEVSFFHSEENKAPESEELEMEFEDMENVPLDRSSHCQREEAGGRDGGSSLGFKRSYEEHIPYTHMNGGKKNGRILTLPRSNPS

Substance | insulin receptor binding relative to that of human insulin [%]
B(1-29)-B22K(N(eps)heptadecandioyl-g-L-Glu)-B29H-TGLGSGR-A(1-21)-A18Q-A21G Human insulin [Example 8] | 53
B(1-29)-B22K((eps)myristoyl)-B29A-VGLSSGQ-A(1-21)-A18Q Human Insulin [Example 1] | 46
B(1-29)-B22K((eps)hexadecandioyl-gGlu)-B29H-TGLGSGR-A(1-21)-A18Q-A21G Human insulin [Example 4] | 46
B(1-29)-B22K((eps)hexadecandioyl-gGlu)-B29Q-TGLGSGR-A(1-21)-A18Q-A21G Human insulin [Example 5] | 154
B(1-29)-B22K(N(eps)octadecandioyl)-B29A-VGLSSGQ-A(1-21)-A18Q Human Insulin [Example 2] | 16
B(1-29)-B22K(N(eps)heptadecandioyl)-B29H-TGLGSGR-A(1-21)-A18Q-A21G Human insulin [Example 7] | 119
B(1-29)-B22K(N(eps)hexadecandioyl-g-L-Glu-amide)-B29H-TGLGSGR-A(1-21)-A18Q-A21G Human insulin [Example 6] | 105
B(1-29)-B22K(N(eps)hexadecandioyl-gGlu)-B29A-VGLSSGQ-A(1-21)-A18Q Human Insulin [Example 3] | 64

target: purified recombinant human insulin receptor-exon 11 (human) (UniProt P06213); assay: assay (I): SPA competition, displacement of A14 Tyr[125I]-human insulin from recombinant human insulin receptor; reference human insulin; settings: not given
Sequence (P06213 other isoform, or with tags, fused parts or gaps limits assumed, form in doubt): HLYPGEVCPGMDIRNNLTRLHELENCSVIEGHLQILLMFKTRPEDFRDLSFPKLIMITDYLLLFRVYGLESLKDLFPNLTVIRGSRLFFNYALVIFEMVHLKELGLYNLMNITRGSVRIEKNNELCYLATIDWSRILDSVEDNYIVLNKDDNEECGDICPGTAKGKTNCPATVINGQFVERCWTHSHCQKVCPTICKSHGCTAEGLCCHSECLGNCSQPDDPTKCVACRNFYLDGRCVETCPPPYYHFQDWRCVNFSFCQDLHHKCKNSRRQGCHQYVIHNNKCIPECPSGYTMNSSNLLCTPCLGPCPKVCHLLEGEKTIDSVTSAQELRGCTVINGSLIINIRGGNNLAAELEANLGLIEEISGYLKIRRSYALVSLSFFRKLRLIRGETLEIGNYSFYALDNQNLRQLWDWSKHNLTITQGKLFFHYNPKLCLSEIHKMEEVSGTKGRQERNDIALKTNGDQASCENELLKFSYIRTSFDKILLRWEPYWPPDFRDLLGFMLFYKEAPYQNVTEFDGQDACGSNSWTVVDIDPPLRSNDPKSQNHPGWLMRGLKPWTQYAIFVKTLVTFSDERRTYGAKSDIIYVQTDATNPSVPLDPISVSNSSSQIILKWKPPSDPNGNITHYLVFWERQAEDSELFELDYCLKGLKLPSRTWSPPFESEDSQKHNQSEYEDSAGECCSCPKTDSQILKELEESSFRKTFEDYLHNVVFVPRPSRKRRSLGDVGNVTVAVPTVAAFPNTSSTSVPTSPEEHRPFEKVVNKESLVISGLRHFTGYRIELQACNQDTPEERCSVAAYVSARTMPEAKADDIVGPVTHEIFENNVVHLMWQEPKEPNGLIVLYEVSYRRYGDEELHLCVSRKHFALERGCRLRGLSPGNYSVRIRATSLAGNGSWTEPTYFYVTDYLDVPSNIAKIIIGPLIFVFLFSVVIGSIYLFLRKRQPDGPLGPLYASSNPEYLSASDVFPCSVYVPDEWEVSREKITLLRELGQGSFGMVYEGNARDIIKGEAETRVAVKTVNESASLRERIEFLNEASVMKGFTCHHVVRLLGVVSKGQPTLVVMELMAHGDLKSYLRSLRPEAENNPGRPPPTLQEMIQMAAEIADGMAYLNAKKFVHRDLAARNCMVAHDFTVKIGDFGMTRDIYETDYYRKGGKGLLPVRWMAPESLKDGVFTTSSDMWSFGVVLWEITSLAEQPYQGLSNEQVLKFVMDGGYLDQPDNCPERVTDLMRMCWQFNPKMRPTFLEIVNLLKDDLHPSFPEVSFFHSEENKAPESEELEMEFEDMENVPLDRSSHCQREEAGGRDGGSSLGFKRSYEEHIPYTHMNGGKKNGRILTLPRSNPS

insulin receptor binding relative to that of human insulin [%] | Substance
64 | B(1-29)-B22K(N(eps)hexadecandioyl-gGlu)-B29A-VGLSSGQ-A(1-21)-A18Q Human Insulin (from UniProt P01308 25-53; P01308 90-110) (ligand)
46 | B(1-29)-B22K((eps)myristoyl)-B29A-VGLSSGQ-A(1-21)-A18Q Human Insulin (from UniProt P01308 25-53; P01308 90-110) (ligand)
53 | B(1-29)-B22K(N(eps)heptadecandioyl-g-L-Glu)-B29H-TGLGSGR-A(1-21)-A18Q-A21G Human insulin (from UniProt P01308 25-53; P01308 90-110) (ligand)
46 | B(1-29)-B22K((eps)hexadecandioyl-gGlu)-B29H-TGLGSGR-A(1-21)-A18Q-A21G Human insulin (from UniProt P01308 25-53; P01308 90-110) (ligand)
154 | B(1-29)-B22K((eps)hexadecandioyl-gGlu)-B29Q-TGLGSGR-A(1-21)-A18Q-A21G Human insulin (from UniProt P01308 25-53; P01308 90-110) (ligand)
105 | B(1-29)-B22K(N(eps)hexadecandioyl-g-L-Glu-amide)-B29H-TGLGSGR-A(1-21)-A18Q-A21G Human insulin (from UniProt P01308 25-53; P01308 90-110) (ligand)
16 | B(1-29)-B22K(N(eps)octadecandioyl)-B29A-VGLSSGQ-A(1-21)-A18Q Human Insulin (from UniProt P01308 25-53; P01308 90-110) (ligand)
119 | B(1-29)-B22K(N(eps)heptadecandioyl)-B29H-TGLGSGR-A(1-21)-A18Q-A21G Human insulin (from UniProt P01308 25-53; P01308 90-110) (ligand)
